Patent US7012098B2, “Inhibitors of inducible nitric oxide synthase for chemoprevention and treatment of cancers” (Pharmacia Corporation, priority 2001, dated 2006)
Where a name gives a salt, the structure may show the parent alone. Read-outs that look alike come from different tables or passages of the source.

What was measured:
iNOS = iNOS (Rattus norvegicus, UniProt Q06518); test: Colonic mucosal iNOS activity after dietary treatment; format: in vivo, male F344 rats
Method: In Vivo Assay of Modulation of Colonic Mucosal Activities of NOS and COX isoforms by iNOS and COX-2 Inhibitors
NOS and iNOS activities were determined in colonic samples as prepared and described above. Conversion of L-arginine to L-citrulline was measured by a modification of an earlier described method (Rao et al, Carcinogenesis 21, supra; Ambs et al., Cancer Res. 58:334-41, 1998, which is herein incorporated by reference). The assay was carried out by adding 100 μg sample protein to 150 μl of assay buffer [50 mM HEPES, 1 mM DTT, 1 mM MgCl2, 5 mg/L pepstatin A, 0.1 mM PMSF, and 3 mg/L aprotinin, pH 7.4] containing 70 μM arginine, 250,000 dpm L-[^3H]-arginine, 2 mM NADPH, 5μM tetrahydro biopterin, 5 μM flavin adenine dinucleotide, and 0.5 mM CaCi2 to measure total NOS activity, or 1 mM EGTA (without calcium) to determine Ca+^2-independent iNOS activity. After 30 min at 37° C., the reaction was stopped with 100 μl of 1M trichloroacetic acid. Then the samples were adjusted to pH 4.6 by adding 500 μl of 20 mM HEPES and loaded on to Dowex AG 50W-X8 resin columns. L-[^3H]-citrulline was eluted and separated on TLC. Radioactivity was counted by a BioScan Radiomatic detector. Results are expressed as pmol L-[^3H]-citrulline released/mg protein/min.

COX-2 = molecular target: T1, COX-2 (Rattus norvegicus, UniProt P35355); test: Colonic mucosal COX-2 activity after dietary treatment; format: in vivo, male F344 rats; settings: 100 ppm in diet; AOM-treated rats, colonic mucosa; Mean ± SEM
T1 sequence (P35355 18-604): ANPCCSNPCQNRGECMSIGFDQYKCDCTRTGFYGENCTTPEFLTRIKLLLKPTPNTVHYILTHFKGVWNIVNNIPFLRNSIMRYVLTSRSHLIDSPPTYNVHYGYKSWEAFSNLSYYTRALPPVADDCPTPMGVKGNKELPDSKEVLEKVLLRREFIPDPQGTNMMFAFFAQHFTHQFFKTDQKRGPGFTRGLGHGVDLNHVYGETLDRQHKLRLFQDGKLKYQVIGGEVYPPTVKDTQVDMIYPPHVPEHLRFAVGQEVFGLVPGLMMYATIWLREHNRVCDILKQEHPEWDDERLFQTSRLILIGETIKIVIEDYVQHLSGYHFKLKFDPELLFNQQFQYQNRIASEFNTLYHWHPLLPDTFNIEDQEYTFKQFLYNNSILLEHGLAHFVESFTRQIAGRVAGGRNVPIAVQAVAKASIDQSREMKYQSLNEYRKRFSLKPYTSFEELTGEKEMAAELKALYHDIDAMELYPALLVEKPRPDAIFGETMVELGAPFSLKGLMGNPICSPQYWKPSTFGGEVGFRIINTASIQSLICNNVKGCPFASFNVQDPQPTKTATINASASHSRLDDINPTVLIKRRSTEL
Method: (§1) For determining COX-2 activity, proteins were preincubated with 50 μM of aspirin to block the activity of COX-1. After incubation at 37° C. for 15 min, the reaction was terminated by adding 40 μl of 0.2 M HCl. The COX-mediated metabolites of arachidonic acid were extracted with ethyl acetate (3×0.5 ml). The combined extracts were evaporated to dryness under N2, redissolved in chloroform, and subjected to thin layer chromatography on precoated TLC plastic plates (silica G 60, 20×20 cm, layer thickness 150 μm). […] The metabolites of ^14C-AA corresponding to PGE2, PGF2α, PGD2, 6-Keto PGF1α, and TXB2 were detected by their comigration (Rf-values) with authentic standards. The area of each metabolite was determined in a Bioscan System 200 image scanning counter (Bioscan Inc., Washington, D.C.) equipped with β-detector.

in vivo = settings: male, F344, rat, plasma, oral
COX-1 = molecular target: T2, COX-1 (Rattus norvegicus, UniProt Q63921); test: Colonic mucosal COX-1 activity after dietary treatment; format: in vivo, male F344 rats; settings: 100 ppm in diet; AOM-treated rats, colonic mucosa; Mean ± SEM
T2 sequence (Q63921 27-602): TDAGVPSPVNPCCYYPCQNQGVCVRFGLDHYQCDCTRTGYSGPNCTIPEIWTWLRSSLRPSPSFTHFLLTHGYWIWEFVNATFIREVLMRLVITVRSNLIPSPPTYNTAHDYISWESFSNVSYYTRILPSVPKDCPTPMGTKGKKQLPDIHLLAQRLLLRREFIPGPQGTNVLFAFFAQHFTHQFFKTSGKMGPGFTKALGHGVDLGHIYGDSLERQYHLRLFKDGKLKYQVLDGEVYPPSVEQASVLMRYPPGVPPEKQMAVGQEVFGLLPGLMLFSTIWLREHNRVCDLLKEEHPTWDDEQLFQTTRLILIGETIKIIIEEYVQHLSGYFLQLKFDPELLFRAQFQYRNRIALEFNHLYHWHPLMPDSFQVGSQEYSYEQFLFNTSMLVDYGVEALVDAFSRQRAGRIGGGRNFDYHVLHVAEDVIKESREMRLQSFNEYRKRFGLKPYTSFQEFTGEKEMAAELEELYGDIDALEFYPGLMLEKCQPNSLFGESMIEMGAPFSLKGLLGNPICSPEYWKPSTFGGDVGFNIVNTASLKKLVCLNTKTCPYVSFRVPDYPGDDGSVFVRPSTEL
Method: as §1
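Wherever Plasma level is given: plasma drug concentrations quantified by liquid chromatography with tandem mass spectrometry following solid phase extraction, reported as mean ± SEM.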
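Wherever Plasma level of compound XI is given: plasma drug concentrations quantified by liquid chromatography with tandem mass spectrometry following solid phase extraction, reported as mean ± SEM.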
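Wherever absorption is given: plasma drug concentrations quantified by liquid chromatography with tandem mass spectrometry following solid phase extraction, reported as mean ± SEM.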

SMILES: CC(=N)NCCCC[C@H](N)C(=O)Nc1nnn[nH]1 [compound XI, 2S-amino-6-[(1-iminoethyl)amino]-N-(1H-tetrazol-5-yl)hexanamide, hydrate, dihydrochloride]
- absorption (3 dose levels (10, 30, 100 ppm in diet)): Dose-dependant
- Plasma level (10 ppm in diet, Early, One week on diet, Mean ± SEM, hydrate, dihydrochloride): 461 ± 15 ηg/mI
- Plasma level (10 ppm in diet, Late, 9 weeks on diet, Mean ± SEM, hydrate, dihydrochloride): 254 ± 13 ηg/mI
- Plasma level (10 ppm in diet, Mid, 5 weeks on diet, Mean ± SEM, hydrate, dihydrochloride): 341 ± 9.7 ηg/mI
- Plasma level of compound XI (30 ppm compound XI + 500 ppm Celecoxib in diet, Early, One week on diet): 1240 ± 37 + ηg/mI
- Plasma level of compound XI (30 ppm compound XI + 500 ppm Celecoxib in diet, Late, 9 weeks on diet): 788 ± 63 ηg/mI
- Plasma level of compound XI (30 ppm compound XI + 500 ppm Celecoxib in diet, Mid, 5 weeks on diet): 901 ± 5.0 + ηg/mI
- Plasma level (30 ppm in diet, first of 3 time points): 1315 ηg/ml
- Plasma level (30 ppm in diet, second of 3 time points): 821 ηg/ml
- Plasma level (30 ppm in diet, third of 3 time points): 742 ηg/ml
- Plasma level of compound XI (100 ppm compound XI + 500 ppm Celecoxib in diet, Early, One week on diet): 4370 ± 112 + ηg/mI
- Plasma level of compound XI (100 ppm compound XI + 500 ppm Celecoxib in diet, Late, 9 weeks on diet): 2477 ± 204 + ηg/mI
- Plasma level of compound XI (100 ppm compound XI + 500 ppm Celecoxib in diet, Mid, 5 weeks on diet): 3096 ± 344 + ηg/mI
- Plasma level (100 ppm in diet, Early, One week on diet, Mean ± SEM, hydrate, dihydrochloride): 4306 ± 146 ηg/mI
- Plasma level (100 ppm in diet, Late, 9 weeks on diet, Mean ± SEM, hydrate, dihydrochloride): 2639 ± 268 ηg/mI
- Plasma level (100 ppm in diet, Mid, 5 weeks on diet, Mean ± SEM, hydrate, dihydrochloride): 2811 ± 82 ηg/mI
- suppression of AOM-induced colonic mucosal iNOS activity (iNOS; 100 ppm): ~37%
- NOS Activity, iNOS (iNOS; 100 ppm in diet, AOM-treated rats, colonic mucosa, Mean ± SEM): 1.6 ± 0.2 pmoles [^3H]-citrulline/mg pro
- COX-Activity, COX-2 (COX-2): 1.8 ± 0.3 pmoles [^14C]-AA metabolized/m
- concentration at 1 week on diet (in vivo; 10 ppm in diet): 461 ng/mL
- concentration at 5 weeks on diet (in vivo; 10 ppm in diet): 341 ng/mL
- concentration at 9 weeks on diet (in vivo; 10 ppm in diet): 254 ng/mL
- concentration at 1 week on diet (in vivo; 20 ppm in diet): 1320 ± 71 ng/mL
- concentration at 5 weeks on diet (in vivo; 20 ppm in diet): 821 ± 32 ng/mL
- concentration at 9 weeks on diet (in vivo; 20 ppm in diet): 742 ± 7 ng/mL
- concentration at 1 week on diet (in vivo; 100 ppm in diet): 4310 ng/mL
- concentration at 5 weeks on diet (in vivo; 100 ppm in diet): 2810 ng/mL
- concentration at 9 weeks on diet (in vivo; 100 ppm in diet): 2640 ng/mL
- COX-Activity, COX-1 (COX-1): 11.3 ± 1.4 pmoles [^14C]-AA metabolized/m
